Counter-ions that a name gives are not always drawn. Like-named read-outs stand apart in the source and are kept apart here.
Assays:
[1] = target: T1, human norepinephrine transporter (Homo sapiens, UniProt P23975); test: Norepinephrine transporter binding assay ([3H]desipramine competition, MDCK cell membranes); conditions: competition with [3H]desipramine 2 nM, 2 h on ice; read-out: NET Affinity
T1 construct: expressed in transfected cells; host or cells: MDCK cells (membrane preparation)
Experimental: Individual inhibitors were dissolved in incubation buffer (50 mM Tris-HCl, 10% sucrose, pH 7.4) at appropriate dilutions. The inhibitor solutions were added to the wells of a microtiter plate (40 μL/well) in triplicate. Each well of test agent (and appropriate control wells) was treated with a mixture of MDCK cell membrane preparation (22.4 μg of membrane) expressing human norepinephrine transporter (Bmax=3.7 pmol norepinephrine transporter/mg protein), and [^3H]desipramine (2 nM, 64.8 Ci/mmol) in a total volume of 0.2 mL. The resulting mixtures were incubated for 2 h on ice.
A 96 well GF/C filter plate was presoaked with coating buffer (0.5% polyvinylpyrrolidine and 0.1% Tween 20) for 2 h at room temperature, then washed with incubation buffer (6×0.2 mL). The competition reactions were transferred to the coated plate and filtered. The filter plate was washed (6×0.2 mL) with ice cold wash buffer (50 mM Tris-HCl, 0.9% NaCl, pH 7.4) then dried overnight and treated with 25 μL scintillation fluid for analysis on a plate reader (Microbeta TriLux 1450 LSC and Luminescence counter, Perkin Elmer, Shelton Conn.).

PC-12 cells = test: PC-12 binding assay (cell uptake with or without desipramine); format: cell-based, rat; conditions: 0.1 μCi test agent, 60 min at 37° C.; for PC-12 (% bound) Block: with 1 μM desipramine (nonspecific uptake); for PC-12 (% bound) Control: without desipramine (total uptake)
Experimental: Rat pheochromocytoma cell line (PC-12) were purchased from the American Type Culture Collection (ATCC) then cultured in collagen-coated flasks (BD Bio Coat Collagen Type 1, BD Biosciences) using a growth media composed of F-12 K media, 2 mM L-glutamine, 15% horse serum, 2.5% fetal bovine serum (FBS) and 1% penicillin-streptomycin.
Prepared PC-12 cells were seeded into 6-well plates at a density of 1×10^6 cells/well with 2 mL of growth media and maintained 24 h at 37° C. under a 5% CO2 atmosphere. The media was exchanged and each well treated with 0.1 μCi test agent, with or without 1 μM desipramine. The resulting mixture was incubated for 60 min at 37° C. and 5% CO2 then centrifuged at 500×g for 3 min and washed with PBS buffer. Radioactivity associated with the cells was then measured, and total uptake determined in the wells without desipramine; nonspecific uptake was measured in the associated wells containing desipramine. The specific NET mediated cell uptake is calculated as percent total uptake minus percent nonspecific uptake.

[2] = Tissue distribution in rats; format: in vivo; conditions: bolus iv injection
Experimental: (§1) Male Sprague Dawley rats (300-500 g, Taconic), and male New Zealand rabbits (3-4 kg, Covance) were used in accordance with our Institutional Animal Care and Use Committee. Rats were anesthetized with sodium pentobarbital (50 mg/kg, i.p.) and the left femoral vein cannulated with PESO tubing for drug injection. Rabbits were pre-sedated with acepromazine (0.75 mg/kg i.m.) then anesthetized with ketamine (40 mg/kg, i.m.) and xylazine (8 mg/kg, i.m); the marginal ear vein was cannulated for drug injection. Additional doses of anesthetics were given as needed.
(§2) After preparation, each animal received a bolus injection of the test agent via the venous catheter. Rats and rabbits were euthanized after the injection and samples of the blood, heart, lung, liver, spleen, kidney, femur and muscle were collected. All samples were weighed and counted for radioactivity (Wallac Wizard 1480, PerkinElmer Life and Analytical Sciences, Shelton, Conn.); net radioactivity administered in each animal was determined by subtracting the residual activity in both the syringe and venous catheter. Tissue uptake of each agent was determined as a percentage of the injected dose per gram tissue (% ID/g).

[3] = Tissue distribution in rabbits; format: in vivo; conditions: bolus iv injection
Experimental: as §1, §2

[4] = tested on: SK-N-SH cells with expression of NAT; test: Cell uptake comparison in SK-N-SH cells with or without desipramine; format: cell-based, human; conditions: for inhibition of cell uptake by blockade of NAT with desipramine: SK-N-SH cells, desipramine 1 μM
Experimental: Imaging Agent-1 cell uptake in comparison with ^3H-NA and ^123I-MIBG was assayed in human neuroblastoma cells (SK-N-SH, ATCC) with expression of NAT (Buck et al., Cancer Res. 1985; 45(12 Pt 1):6366-70). Cells were prepared in 6-well plates at a density of 1×10^6 cells/well in 2 mL media. Imaging Agent-1, ^3H-NA or ^123I-MIBG at 3.7 kBq was added to each well with or without desipramine (1 μM), a selective NAT inhibitor. In assay with NA, pargyline (10 μM) was included to inhibit monoamine oxidase activity. Following incubation for 60 minutes at 37° C., cells were washed twice with ice-cold phosphate-buffered saline, trypsinized and centrifuged at 1000 g for 3 minutes to collect cell pellet. Radioactivity associated with the cells was measured with a γ-(Wallac Wizard 1480, PerkinElmer) or β-counter (Microbeta TriLux 1450 LSC, PerkinElmer). Each assay was performed in triplicate and the uptake was expressed as a percent of total radioactivity added to the well.

[5] = tested on: noradrenaline transporter (NAT) in SK-N-SH cells; test: Competitive inhibition of Imaging Agent-1 uptake in SK-N-SH cells; format: cell-based, human; conditions: non-radioactive competitor 0.1-100 μM, 37° C., 60 minutes, read-out: IC50 for inhibition of Imaging Agent-1 cell uptake
Experimental: For the competitive inhibition assay, Imaging Agent-1 at 3.7 kBq was incubated in SK-N-SH cells with various concentrations (0.1, 1, 10, or 100 μM) of non-radioactive NA, MIBG or ^19F-Imaging Agent-1 (self) at 37° C. for 60 minutes. Similarly, following the incubation, Imaging Agent-1 cell uptake was determined. The IC50 value of each agent was determined using GraphPad software (v5).

T1 sequence (P23975 whole entry): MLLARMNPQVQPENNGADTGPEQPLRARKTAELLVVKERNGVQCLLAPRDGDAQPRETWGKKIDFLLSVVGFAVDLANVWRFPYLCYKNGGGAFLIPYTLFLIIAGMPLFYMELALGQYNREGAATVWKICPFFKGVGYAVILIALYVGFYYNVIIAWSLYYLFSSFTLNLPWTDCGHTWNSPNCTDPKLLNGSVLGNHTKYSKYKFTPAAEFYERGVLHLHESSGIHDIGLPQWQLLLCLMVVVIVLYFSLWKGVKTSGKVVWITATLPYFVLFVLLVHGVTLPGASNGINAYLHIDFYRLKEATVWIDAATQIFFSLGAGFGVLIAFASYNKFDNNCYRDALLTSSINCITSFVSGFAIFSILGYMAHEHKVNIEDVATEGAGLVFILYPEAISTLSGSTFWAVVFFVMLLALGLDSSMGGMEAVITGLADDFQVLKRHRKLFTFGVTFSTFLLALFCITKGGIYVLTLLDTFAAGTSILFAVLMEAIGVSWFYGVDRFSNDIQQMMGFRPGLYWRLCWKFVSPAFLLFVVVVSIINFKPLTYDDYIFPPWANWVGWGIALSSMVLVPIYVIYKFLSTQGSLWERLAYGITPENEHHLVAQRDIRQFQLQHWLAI

Row | Ki [1] | PC-12 (% bound) Block (PC-12 cells) | PC-12 (% bound) Control (PC-12 cells) | Rat Blood [2] | Rat Heart [2] | Rat Liver [2] | Rat Lung [2] | Rabbit Blood [3] | Rabbit Heart [3] | Rabbit Liver [3] | Rabbit Lung [3] | IC50 ([5]; Homo sapiens, 1 h) | Molecule | uptake in SK-N-SH cells (percent of total radioactivity added) ([4]; 3.7 kBq, 60 minutes at 37° C., without desipramine) | inhibition of cell uptake by blockade of NAT with desipramine [4] | IC50 [5]
1 | 7.35 µM | 2.36 % bound | 32.76 % bound | 0.35 ± 0.15 % ID/g | 0.71 ± 0.24 % ID/g | 0.15 ± 0.03 % ID/g | 1.12 ± 0.29 % ID/g | 0.01 % ID/g | 0.29 % ID/g | 0.02 % ID/g | 0.39 % ID/g | – | N=C(N)NCc1ccc(CF)c(Br)c1 [Example 3, 1-(3-bromo-4-(fluoromethyl)benzyl)guanidine] | – | – | –
2 | 5.41 µM | 0.50 % bound | 1.00 % bound | 0.13 ± 0.02 % ID/g | 1.04 ± 0.95 % ID/g | 0.37 ± 0.24 % ID/g | 0.34 ± 0.18 % ID/g | 0.014 % ID/g | 0.025 % ID/g | 0.012 % ID/g | 0.031 % ID/g | – | N=C(N)NCc1ccc(COCCF)c(Br)c1 [Example 4, 1-(3-bromo-4-((2-fluoroethoxy)methyl)benzyl)guanidine] | – | – | –
3 | 18.7 µM | 0.90 % bound | 1.00 % bound | 0.69 % ID/g | 1.23 % ID/g | 0.26 % ID/g | 0.59 % ID/g | – | – | – | – | – | N=C(N)NCc1ccc(CCF)cc1 [Example 5, 1-[4-(2-fluoroethyl)benzyl]guanidine] | – | – | –
4 | 17.4 µM | 0.60 % bound | 1.30 % bound | 0.21 % ID/g | 1.61 % ID/g | 0.27 % ID/g | 0.94 % ID/g | – | – | – | – | – | N=C(N)NCc1ccc(CCF)c(Br)c1 [Example 8, 1-(3-bromo-4-(2-fluoroethyl)benzyl)guanidine] | – | – | –
5 | 0.12 µM | 2.70 % bound | 23.90 % bound | 0.51 ± 0.11 % ID/g | 1.74 ± 0.27 % ID/g | 0.61 ± 0.40 % ID/g | 2.71 ± 0.51 % ID/g | 0.04 ± 0.01 % ID/g | 0.39 ± 0.02 % ID/g | 0.02 ± 0.00 % ID/g | 0.39 ± 0.11 % ID/g | – | N=C(N)NCc1ccc2cc(OCCF)ccc2c1 [Example 11, 1-((6-(2-fluoroethoxy)naphthalen-2-yl)methyl)guanidine] | – | – | –
6 | 0.14 µM | 0.50 % bound | 5.30 % bound | 0.37 ± 0.05 % ID/g | 1.93 ± 0.11 % ID/g | 0.18 ± 0.01 % ID/g | 2.09 ± 0.08 % ID/g | 0.04 ± 0.02 % ID/g | 0.29 ± 0.09 % ID/g | 0.02 ± 0.01 % ID/g | 0.28 ± 0.17 % ID/g | – | N=C(N)NCc1ccc2cc(OCCCF)ccc2c1 [Example 12, 1-((6-(3-fluoropropoxy)naphthalen-2-yl)methyl)guanidine] | – | – | –
7 | 3.95 µM | 1.50 % bound | 2.30 % bound | 0.10 ± 0.01 % ID/g | 1.94 ± 0.16 % ID/g | 0.21 ± 0.04 % ID/g | 0.66 ± 0.11 % ID/g | – | – | – | – | – | N=C(N)NCCc1ccc(CCCF)cc1 [Example 33, 1-(4-(3-fluoropropyl)phenethyl)guanidine] | – | – | –
8 | – | – | – | – | – | – | – | – | – | – | – | – | N=C(N)NCc1ccc(OCCC[18F])c(Br)c1 [Imaging Agent-1] | 24.6±9% | 90±3% | –
9 | – | – | – | – | – | – | – | – | – | – | – | – | N=C(N)NCc1cccc(I)c1 [MIBG, meta-iodobenzylguanidine] | – | – | 0.21 µM
10 | – | – | – | – | – | – | – | – | – | – | – | 1.09 µM | NC[C@H](O)c1ccc(O)c(O)c1 [NA, noradrenaline] | – | – | –
11 | – | – | – | – | – | – | – | – | – | – | – | – | N=C(N)NCc1cccc([123I])c1 [^123I-MIBG, ^123I-meta-iodobenzylguanidine, reference compound] | – | 94±2% | –
12 | – | – | – | – | – | – | – | – | – | – | – | – | ^3H-noradrenaline [^3H-NA, reference compound] | – | 97±2% | –

Row | Molecule | Ki [1] | PC-12 (% bound) Block (PC-12 cells) | PC-12 (% bound) Control (PC-12 cells) | Rat Blood [2] | Rat Heart [2] | Rat Liver [2] | Rat Lung [2] | Rabbit Blood [3] | Rabbit Heart [3] | Rabbit Liver [3] | Rabbit Lung [3] | IC50 ([5]; Homo sapiens, 1 h) | uptake in SK-N-SH cells (percent of total radioactivity added) ([4]; 3.7 kBq, 60 minutes at 37° C., without desipramine) | inhibition of cell uptake by blockade of NAT with desipramine [4] | IC50 [5]
13 | N=C1NCC(c2ccc(OCCF)cc2)N1 (centres unmarked) [Example 1, 4-(4-(2-fluoroethoxy)phenyl)imidazolidin-2-imine] | 7.27 µM | 0.30 % bound | 3.1 % bound | 0.18 % ID/g | 1.03 % ID/g | 0.15 % ID/g | 0.24 % ID/g | – | – | – | – | – | – | – | –
14 | N=C1NCC(c2ccc(OCCF)c(Br)c2)N1 (centres unmarked) [Example 2, 4-(3-bromo-4-(2-fluoroethoxy)phenyl)imidazolidin-2-imine, hydrochloric acid salt] | 11.2 µM | 0.60 % bound | 3.20 % bound | 0.19 % ID/g | 1.33 % ID/g | 0.25 % ID/g | 0.94 % ID/g | – | – | – | – | – | – | – | –
15 | N=C(N)NCCc1c[nH]c2ccc(OCCF)cc12 [Example 21, 1-(2-(5-(2-fluoroethoxy)-1H-indol-3-yl)ethyl)guanidine] | 1.19 µM | 0.10 % bound | 0.10 % bound | 0.41 % ID/g | 0.35 % ID/g | 1.01 % ID/g | 0.38 % ID/g | – | – | – | – | – | – | – | –
